Experimental data from patent US10934310B2, “Inhibitors of Bruton's tyrosine kinase and method of their use” (JANSSEN PHARMACEUTICA NV, priority 2015, dated 2021).

Biological target: unphosphorylated-BTK kinase domain (UP-BTK), GST-tagged human BTK (389-659aa) (Homo sapiens (Human), UniProt Q06187)
Experiment: BTK Kinase Lanthascreen Binding Assay
Details: Lanthascreen binding, 60 minutes incubation; pIC50 = negative log of the IC50 in molar
Procedure: BTK Kinase Lanthascreen Binding Assay:
A BTK kinase lanthascreen binding assay monitors compound binding to unphosphorylated-BTK kinase domain (UP-BTK), by competing with a fluorescent labeled tracer. […] Data were analyzed using Xlfit™ version 5.3 from ID Business Solutions (Guildford), Microsoft Excel add-in. pIC50 refers to the negative log of the IC50 in molar.

Sequence of unphosphorylated-BTK kinase domain (UP-BTK), GST-tagged human BTK (389-659aa) (Q06187 389-659): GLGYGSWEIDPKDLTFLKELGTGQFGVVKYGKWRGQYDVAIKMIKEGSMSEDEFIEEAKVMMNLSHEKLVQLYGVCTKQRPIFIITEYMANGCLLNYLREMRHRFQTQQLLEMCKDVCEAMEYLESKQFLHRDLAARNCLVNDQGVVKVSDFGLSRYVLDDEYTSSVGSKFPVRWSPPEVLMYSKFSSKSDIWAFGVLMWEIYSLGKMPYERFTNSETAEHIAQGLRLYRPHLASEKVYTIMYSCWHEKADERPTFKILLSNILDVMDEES

| SMILES | BTK_I_binding pIC50 |
| --- | --- |
| CC(=O)NC1CCC[C@@H](NC(=O)c2sc3nccc4c3c2NC(=O)N4c2cnc(Oc3ccccc3)cc2C)C1 (single isomer, unassigned) [Example 422, N-((1R,3R)-3-Acetamidocyclohexyl)-5-(*S)-(4-methyl-6-phenoxypyridin-3-yl)-4-oxo-4,5-dihydro-3H-1-thia-3,5,8-triazaacenaphthylene-2-carboxamide] | 7.72 |
| CCC(=O)NC1CCC[C@@H](NC(=O)c2sc3nccc4c3c2NC(=O)N4c2cnc(Oc3ccccc3)cc2C)C1 (single isomer, unassigned) [Example 423, 5-(*S)-(4-Methyl-6-phenoxypyridin-3-yl)-4-oxo-N-((1R,3R)-3-propionamidocyclohexyl)-4,5-dihydro-3H-1-thia-3,5,8-triazaacenaphthylene-2-carboxamide] | 7.75 |
| C=CC(=O)N[C@H]1CCC[C@H]1NC(=O)c1sc2nccc3c2c1NC(=O)N3c1ccc(Oc2cccnn2)cc1C (single isomer, unassigned) [Example 424, N-((1R,2S)-2-Acrylamidocyclopentyl)-5-(*S)-(2-methyl-4-(pyridazin-3-yloxy)phenyl)-4-oxo-4,5-dihydro-3H-1-thia-3,5,8-triazaacenaphthylene-2-carboxamide] | 7.76 |
| C=CC(=O)N[C@H]1CCC[C@H]1NC(=O)c1sc2nccc3c2c1NC(=O)N3c1ccc(Oc2cccnn2)cc1C (single isomer, unassigned) [Example 425, N-((1R,2S)-2-Acrylamidocyclopentyl)-5-(*R)-(2-methyl-4-(pyridazin-3-yloxy)phenyl)-4-oxo-4,5-dihydro-3H-1-thia-3,5,8-triazaacenaphthylene-2-carboxamide] | 6.67 |
| C=CC(=O)N[C@H]1CCC[C@H]1NC(=O)c1sc2nccc3c2c1NC(=O)N3c1cnc(OC(C)C)cc1C (single isomer, unassigned) [Example 426, N-((1R,2S)-2-Acrylamidocyclopentyl)-5-(*S)-(6-isopropoxy-4-methylpyridin-3-yl)-4-oxo-4,5-dihydro-3H-1-thia-3,5,8-triazaacenaphthylene-2-carboxamide] | 8.20 |
| C=CC(=O)N[C@H]1CC[C@@H](NC(=O)c2sc3nccc4c3c2NC(=O)N4c2cnc(OC(C)C)cc2C)C1 (single isomer, unassigned) [Example 427, N-((1R,3S)-3-Acrylamidocyclopentyl)-5-(*S)-(6-isopropoxy-4-methylpyridin-3-yl)-4-oxo-4,5-dihydro-3H-1-thia-3,5,8-triazaacenaphthylene-2-carboxamide] | 7.88 |
| Cc1cc(OC(C)C)ncc1N1C(=O)Nc2c(C(=O)N[C@@H]3CCC[C@@H]3N)sc3nccc1c23 (single isomer, unassigned) [Example 428, N-((1R,2S)-2-Aminocyclopentyl)-5-(*S)-(6-isopropoxy-4-methylpyridin-3-yl)-4-oxo-4,5-dihydro-3H-1-thia-3,5,8-triazaacenaphthylene-2-carboxamide] | 6.67 |
| C=CC(=O)N[C@@H]1CC[C@H](NC(=O)c2sc3nccc4c3c2NC(=O)N4c2cnc(Oc3ccccc3)cc2C)C1 (single isomer, unassigned) [Example 430, N-((1S,3R)-3-Acrylamidocyclopentyl)-5-(*S)-(4-methyl-6-phenoxypyridin-3-yl)-4-oxo-4,5-dihydro-3H-1-thia-3,5,8-triazaacenaphthylene-2-carboxamide] | 8.17 |
| Cc1cc(Oc2ccccc2)ncc1N1C(=O)Nc2c(C(=O)N[C@H]3CC[C@@H](N)C3)sc3nccc1c23 (single isomer, unassigned) [Example 431, N-((1S,3R)-3-Aminocyclopentyl)-5-(*S)-(4-methyl-6-phenoxypyridin-3-yl)-4-oxo-4,5-dihydro-3H-1-thia-3,5,8-triazaacenaphthylene-2-carboxamide] | 6.68 |
| C=CC(=O)N[C@@H]1CCCC[C@H]1NC(=O)c1sc2nccc3c2c1NC(=O)N3c1ccc(Oc2ccccc2)cc1C (single isomer, unassigned) [Example 439, N-((1R,2R)-2-Acrylamidocyclohexyl)-5-(*S)-(2-methyl-4-phenoxyphenyl)-4-oxo-4,5-dihydro-3H-1-thia-3,5,8-triazaacenaphthylene-2-carboxamide] | 7.53 |
| Cc1cc(Oc2ccccc2)ccc1N1C(=O)Nc2c(C(=O)N[C@@H]3CCCC[C@H]3N)sc3nccc1c23 (single isomer, unassigned) [Example 440, N-((1R,2R)-2-aminocyclohexyl)-5-(*S)-(2-methyl-4-phenoxyphenyl)-4-oxo-4,5-dihydro-3H-1-thia-3,5,8-triazaacenaphthylene-2-carboxamide] | 7.07 |
| Cc1cc(Oc2ccccc2)ccc1N1C(=O)Nc2c(C(=O)N[C@@H]3CCCC[C@H]3NC(=O)CN)sc3nccc1c23 (single isomer, unassigned) [Example 441, N-((1R,2R)-2-(2-Aminoacetamido)cyclohexyl)-5-(*S)-(2-methyl-4-phenoxyphenyl)-4-oxo-4,5-dihydro-3H-1-thia-3,5,8-triazaacenaphthylene-2-carboxamide] | 7.01 |
| CNCC(=O)N[C@@H]1CCCC[C@@H]1NC(=O)c1sc2nccc3c2c1NC(=O)N3c1ccc(Oc2ccccc2)cc1C (single isomer, unassigned) [Example 443, 5-(*S)-(2-Methyl-4-phenoxyphenyl)-N-((1S,2R)-2-(2-(methylamino)acetamido)cyclohexyl)-4-oxo-4,5-dihydro-3H-1-thia-3,5,8-triazaacenaphthylene-2-carboxamide] | 6.74 |
| Cc1cc(Oc2ccccc2)ccc1N1C(=O)Nc2c(C(=O)N[C@H]3CCCC[C@H]3NC(=O)CN)sc3nccc1c23 (single isomer, unassigned) [Example 444, N-((1S,2R)-2-(2-Aminoacetamido)cyclohexyl)-5-(*S)-(2-methyl-4-phenoxyphenyl)-4-oxo-4,5-dihydro-3H-1-thia-3,5,8-triazaacenaphthylene-2-carboxamide] | 6.73 |
| CC(=O)N[C@@H]1CCCC[C@H]1NC(=O)c1sc2nccc3c2c1NC(=O)N3c1ccc(Oc2ccccc2)cc1C (single isomer, unassigned) [Example 445, N-((1R,2R)-2-Acetamidocyclohexyl)-5-(*S)-(2-methyl-4-phenoxyphenyl)-4-oxo-4,5-dihydro-3H-1-thia-3,5,8-triazaacenaphthylene-2-carboxamide] | 6.73 |
| CC(=O)N[C@@H]1CCCC[C@@H]1NC(=O)c1sc2nccc3c2c1NC(=O)N3c1ccc(Oc2ccccc2)cc1C (single isomer, unassigned) [Example 446, N-((1S,2R)-2-Acetamidocyclohexyl)-5-(*S)-(2-methyl-4-phenoxyphenyl)-4-oxo-4,5-dihydro-3H-1-thia-3,5,8-triazaacenaphthylene-2-carboxamide] | 6.72 |
| Cc1cc(Oc2ccccc2)ccc1N1C(=O)Nc2c(C(=O)N[C@@H]3CCCC[C@H]3NC(=O)CN(C)C)sc3nccc1c23 (single isomer, unassigned) [Example 447, N-((1R,2R)-2-(2-(Dimethylamino)acetamido)cyclohexyl)-5-(*S)-(2-methyl-4-phenoxyphenyl)-4-oxo-4,5-dihydro-3H-1-thia-3,5,8-triazaacenaphthylene-2-carboxamide] | 6.67 |
| CNCC(=O)N[C@@H]1CCCC[C@H]1NC(=O)c1sc2nccc3c2c1NC(=O)N3c1ccc(Oc2ccccc2)cc1C (single isomer, unassigned) [Example 448, 5-(*S)-(2-Methyl-4-phenoxyphenyl)-N-((1R,2R)-2-(2-(methylamino)acetamido)cyclohexyl)-4-oxo-4,5-dihydro-3H-1-thia-3,5,8-triazaacenaphthylene-2-carboxamide] | 6.66 |
| Cc1cc(Oc2ccccc2)ccc1N1C(=O)Nc2c(C(=O)N[C@H]3CCCC[C@H]3NC(=O)CN(C)C)sc3nccc1c23 (single isomer, unassigned) [Example 449, N-((1S,2R)-2-(2-(Dimethylamino)acetamido)cyclohexyl)-5-(*S)-(2-methyl-4-phenoxyphenyl)-4-oxo-4,5-dihydro-3H-1-thia-3,5,8-triazaacenaphthylene-2-carboxamide] | 6.51 |
| Cc1cc(Oc2ccccc2)ccc1N1C(=O)Nc2c(C(=O)N[C@H]3CCCC[C@H]3N)sc3nccc1c23 (single isomer, unassigned) [Example 450, N-((1S,2R)-2-Aminocyclohexyl)-5-(*S)-(2-methyl-4-phenoxyphenyl)-4-oxo-4,5-dihydro-3H-1-thia-3,5,8-triazaacenaphthylene-2-carboxamide] | 6.47 |

Same assay, conditions: read-out: BTK_I_binding pIC50 (converted)

| SMILES | IC50 [nM] |
| --- | --- |
| Cc1nc(Oc2ccccc2)ccc1N1C(=O)Nc2c(C(=O)N[C@H]3CC[C@H](N)C3)sc3nccc1c23 (single isomer, unassigned) [Example 415, N-((1S,3S)-3-Aminocyclopentyl)-5-(*S)-(2-methyl-6-phenoxypyridin-3-yl)-4-oxo-4,5-dihydro-3H-1-thia-3,5,8-triazaacenaphthylene-2-carboxamide] | > 1000 |
| CCC(=O)N[C@H]1CCC[C@H](NC(=O)c2sc3nccc4c3c2NC(=O)N4c2cnc(Oc3ccccc3)cc2C)C1 (single isomer, unassigned) [Example 416, 5-(*S)-(4-Methyl-6-phenoxypyridin-3-yl)-4-oxo-N-((1S,3R)-3-propionamidocyclohexyl)-4,5-dihydro-3H-1-thia-3,5,8-triazaacenaphthylene-2-carboxamide] | > 1000 |
| Cc1cc(OC(C)C)ncc1N1C(=O)Nc2c(C(=O)N[C@@H]3CC[C@H](N)C3)sc3nccc1c23 (single isomer, unassigned) [Example 429, N-((1R,3S)-3-Aminocyclopentyl)-5-(*S)-(6-isopropoxy-4-methylpyridin-3-yl)-4-oxo-4,5-dihydro-3H-1-thia-3,5,8-triazaacenaphthylene-2-carboxamide] | > 1000 |
